Measured values reported in article PMC7581279 (Journal of medicinal chemistry, 2013).

Test system: HIV-1 (IIIB) in MT-4 cells
Assay: not given
Details: HIV-1-induced cytopathic effect in MT-4 cells

| SMILES | activity in the CPE assay |
| --- | --- |
| CCOC(=O)C(=O)CC(=O)/C=C/c1cccn1Cc1ccccc1 [7a, 6-[1-(Phenyl)methyl-1H-pyrrol-2-yl]-2,4-dioxo-5-hexenoic Acid Ethyl Ester] | antiviral |
| CCOC(=O)C(=O)CC(=O)/C=C/c1cccn1Cc1ccccc1F [7e, 6-[1-(2-Fluorophenyl)methyl-1H-pyrrol-2-yl]-2,4-dioxo-5-hexenoic Acid Ethyl Ester] | antiviral |
| CCOC(=O)C(=O)CC(=O)/C=C/c1cccn1Cc1cccc(F)c1 [7f, 6-[1-(3-Fluorophenyl)methyl-1H-pyrrol-2-yl]-2,4-dioxo-5-hexenoic Acid Ethyl Ester] | antiviral |
| CCOC(=O)C(=O)CC(=O)/C=C/c1cccn1Cc1ccc(F)cc1 [7g, 6-[1-(4-Fluorophenyl)methyl-1H-pyrrol-2-yl]-2,4-dioxo-5-hexenoic Acid Ethyl Ester] | antiviral |
| O=C(/C=C/c1cccn1Cc1ccccc1)CC(=O)C(=O)O [8a, 6-[1-(Phenyl)methyl-1H-pyrrol-2-yl]-2,4-dioxo-5-hexenoic Acid] | antiviral |
| O=C(/C=C/c1cccn1Cc1ccc(F)cc1)CC(=O)C(=O)O [8g, 6-[1-(4-Fluorophenyl)methyl-1H-pyrrol-2-yl]-2,4-dioxo-5-hexenoic Acid] | antiviral |
| O=C(/C=C/c1cccn1Cc1ccc(Cl)cc1)CC(=O)C(=O)O [8i, 6-[1-(4-Chlorophenyl)methyl-1H-pyrrol-2-yl]-2,4-dioxo-5-hexenoic Acid] | inactive |

Test system: RT-associated DNA polymerase function
Assay: not given
Details: cited from earlier work

| SMILES | activity against RT-associated DNA polymerase function |
| --- | --- |
| CCOC(=O)C(=O)CC(=O)/C=C/c1cccn1Cc1ccc(F)cc1 [7g, 6-[1-(4-Fluorophenyl)methyl-1H-pyrrol-2-yl]-2,4-dioxo-5-hexenoic Acid Ethyl Ester] | inactive |

Molecular target: HIV-1 RT-associated RNase H activity (Human immunodeficiency virus type 1 group M subtype B, UniProt P04585)
Assay: biochemical
Details: not given

| SMILES | IC50 |
| --- | --- |
| CCOC(=O)C(=O)CC(=O)/C=C/c1cccn1Cc1ccccc1OC [7m, 6-[1-(2-Methoxyphenyl)methyl-1H-pyrrol-2-yl]-2,4-dioxo-5-hexenoic Acid Ethyl Ester] | > 100 µM |
| CCOC(=O)C(=O)CC(=O)/C=C/c1cccn1Cc1ccccc1OCC [7o, 6-[1-(2-Ethoxyphenyl)methyl-1H-pyrrol-2-yl]-2,4-dioxo-5-hexenoic Acid Ethyl Ester] | > 100 µM |

Molecular target: recombinant HIV-1 IN ST activity (Human immunodeficiency virus type 1 group M subtype B, UniProt P04585)
Assay: biochemical
Details: not given

| SMILES | IC50 |
| --- | --- |
| CCOC(=O)C(=O)CC(=O)/C=C/c1cccn1Cc1ccc(C#N)cc1 [7l, 6-[1-(4-Cyanophenyl)methyl-1H-pyrrol-2-yl]-2,4-dioxo-5-hexenoic Acid Ethyl Ester] | > 111 µM |
| CCOC(=O)C(=O)CC(=O)/C=C/c1cccn1Cc1ccc(Cl)cc1Cl [7w, 6-[1-(2,4-Dichlorophenyl)methyl-1H-pyrrol-2-yl]-2,4-dioxo-5-hexenoic Acid Ethyl Ester] | > 111 µM |
